Reference: patent publication US6838580B2, “Opioid derivative” (Teikoku Seiyaku Co., Ltd., priority 2002, dated 2005)

What was measured:
[1] = biological target: T1, δ-opioid receptor (Rattus norvegicus, UniProt P33533); test: Competitive receptor binding assay, synaptic membrane fraction, [3H]DPDPE; details: rat brain synaptic membrane, read-out: Affinity of receptor (Ki, nM) δ
T1 construct: synaptic membrane fraction obtained from the rat brain tissue; from tissue; host or cells: Sprague-Dawley rat brain without cerebellum, synaptic membrane (P2) fraction
T1 sequence (P33533 whole entry): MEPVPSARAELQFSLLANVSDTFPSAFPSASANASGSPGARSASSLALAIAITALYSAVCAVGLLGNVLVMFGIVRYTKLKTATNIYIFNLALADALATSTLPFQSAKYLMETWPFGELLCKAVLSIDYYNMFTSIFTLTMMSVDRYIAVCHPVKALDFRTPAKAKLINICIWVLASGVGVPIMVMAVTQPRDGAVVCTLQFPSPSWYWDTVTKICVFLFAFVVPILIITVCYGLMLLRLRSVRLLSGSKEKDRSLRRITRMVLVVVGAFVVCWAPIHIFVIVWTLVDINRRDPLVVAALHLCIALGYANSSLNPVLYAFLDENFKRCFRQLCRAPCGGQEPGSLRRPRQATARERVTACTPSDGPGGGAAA
Protocol: (§1) Regarding the opioid peptide derivatives synthesized in Examples and Reference Examples, the μ- and δ-opioid receptor affinities were obtained by a competitive receptor assay using the synaptic membrane fraction obtained from the rat brain tissue according to the known methods. That is, Sprague-Dawley rats having an average weight of 150-180 g were killed by decapitation, the brain tissue from which cerebellum had been removed was homogenized in 0.32M sucrose and 1 mM HEPES (pH 7.5) containing 50 μg/ml soybean trypsin inhibitor, fractionated and centrifuged to obtain the synaptic membrane fraction (P2 fraction), which was pre-incubated in 50 mM HEPES (pH 7.5) containing 100 mM NaCl, 0.1 mM GDP and soybean trypsin inhibitor to remove endogenous ligands from the P2 fraction.
(§2) A competitive receptor binding assay (Radiolabeled receptor assay: RRA) based on an exchange reaction between a radioactive ligand for the synaptic membrane fraction and a peptide derivative to be tested was performed by using tritium-labeled [^3H]DAGO which is a μ-opioid receptor agonist and tritium-labeled [^3H]DPDPE which has the high δ-opioid receptor selectivity, and incubating an aliquot of the synaptic membrane with the peptide derivative to be tested for a period of time. Upon this, an exchange reaction between a ligand was performed under constant conditions, the radiation remaining in the synaptic membrane fraction was measured, and an amount of the ligand adsorbed onto the synaptic membrane fraction is calculated. By assuming that binding with a receptor occurs in competition between a radioactive ligand and an end ligand, the concentration (IC50) at which the maximum specific binding of the radioactive ligand is 50% inhibited was obtained, from which the affinity constant (Ki) was calculated by a method of Cheng et al. (Biochem. Pharmcol., 22, 3099(1973)).

[2] = biological target: T2, μ-opioid receptor (Rattus norvegicus, UniProt P33535); test: Competitive receptor binding assay, synaptic membrane fraction, [3H]DAGO; details: for Ki: rat brain synaptic membrane, [3H]DAGO, read-out: Affinity of receptor (Ki, nM) μ; for Selectivity δ/μ: ratio Ki δ / Ki μ
T2 construct: synaptic membrane fraction obtained from the rat brain tissue; from tissue; host or cells: Sprague-Dawley rat brain without cerebellum, synaptic membrane (P2) fraction
T2 sequence (P33535 whole entry): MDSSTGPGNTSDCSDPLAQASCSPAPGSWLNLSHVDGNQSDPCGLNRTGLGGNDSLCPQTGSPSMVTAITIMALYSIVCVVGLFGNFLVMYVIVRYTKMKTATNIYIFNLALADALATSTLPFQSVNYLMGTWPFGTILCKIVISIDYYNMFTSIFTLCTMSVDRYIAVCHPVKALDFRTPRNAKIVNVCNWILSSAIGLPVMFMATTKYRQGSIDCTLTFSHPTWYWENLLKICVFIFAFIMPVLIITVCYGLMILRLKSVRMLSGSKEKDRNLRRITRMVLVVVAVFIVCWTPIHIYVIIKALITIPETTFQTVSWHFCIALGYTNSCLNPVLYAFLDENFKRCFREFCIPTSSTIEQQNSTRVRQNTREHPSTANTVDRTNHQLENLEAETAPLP
Protocol: as §1, §2

[3] = biological target: T3, δ-opioid receptor (Mus musculus, UniProt P32300); test: Mouse seminiferous tract (MVD) assay, inhibition of electrically stimulated constriction; format: cell-based; details: agonist activity, read-out: MVD (IC50 ± S.E.)
T3 construct: using mouse seminiferous tract in place of guinea pig ileum; from tissue; host or cells: mouse seminiferous tract (vas deferens, MVD), organ bath
T3 sequence (P32300 whole entry): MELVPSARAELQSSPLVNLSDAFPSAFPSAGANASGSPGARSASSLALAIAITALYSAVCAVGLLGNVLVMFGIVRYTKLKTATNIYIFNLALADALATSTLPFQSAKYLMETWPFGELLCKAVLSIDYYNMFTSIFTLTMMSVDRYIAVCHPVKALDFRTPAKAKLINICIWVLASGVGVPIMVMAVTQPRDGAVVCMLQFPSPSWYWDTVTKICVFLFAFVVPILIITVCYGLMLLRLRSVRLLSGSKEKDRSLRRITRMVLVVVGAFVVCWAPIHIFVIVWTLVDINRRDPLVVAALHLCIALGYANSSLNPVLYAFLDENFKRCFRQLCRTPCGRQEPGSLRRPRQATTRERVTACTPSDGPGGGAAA

[4] = system: SD Male rats; test: Analgesic effect, Randoll-Seritto hind limb pressure method, intracerebroventricular administration; format: in vivo; details: rat, i.c.v., 3 μg/animal
Excerpt: (§3) SD Male rats, weighing 110 to 130 g, were used. One group consisted of five rats. The analgesic effects were examined by a Randoll-Seritto method. […] The threshold was expressed in mm Hg. During the measurement, the upper limit of the pressure applied to a hind limb was 100 mm Hg in order to avoid damage of the tissues.
1) When performing intracerebroventricular administration (i.c.v.), a rat was fixed to a brain stereotactic fixing apparatus under slight ether anesthesia, the skin at a head was dissected, and an administration cannula was inserted into a place at a transverse of […] from a bregma position and a depth of 3.5 to 4.0 mm. The administration volume was 10 μl/animal. Observation of the analgesic action was performed before administration, and at 30 minutes, and 1, 2, 3, 4 and 5 hours after administration. Doses of both compounds were 0.1, 1 and 10 μg/animal. Separately, a group to which 5 mg/kg of naltrexone hydrochloride was administered subcutaneously immediately after compound of Ex.1 10 μg/animal i.c.v and a group to which 5 mg/kg of naltrexone hydrochloride was administered subcutaneously immediately after compound of Ex.4 10 μg/animal i.c.v. was made. In addition, as morphine hydrochloride at a dose of 3 μg/animal i.c.v. group was used as a positive control group and a physiological saline 10 μl/animal i.c.v. group as a control group was made, respectively.
(§4) In order to perform a significant difference test between respective administration groups and control groups, and between values at respective times before administration and after administration, a Dunnet multiple comparative test method was used. In the statistical processing for performing a significant difference test between morphine hydrochloride administration groups and control groups, Student t-test was used. For performing a significant difference test between values at respective times before administration and after administration in morphine hydrochloride administration groups, a Dunnet multiple comparative test method was used. A significant level was at 5 or lower % risk rate (two-tailed test).

[5] = system: SD Male rats; test: Analgesic effect, Randoll-Seritto hind limb pressure method, intravenous administration; format: in vivo; details: rat, i.v., 5 mg/kg
Protocol: as §3
(§5) 2) When administered intravenously (i.v.), a volume of 2 ml/kg weight was administered to a tail vein and, when administered subcutaneously (s.c.), a volume of 2 ml/kg weight was subcutaneously administered to the back. In the case of intravenous administration, a 1 mg/kg, 3 mg/kg or 10 mg/kg compound of Ex.1 administration group, a 1 mg/kg, 3 mg/kg or 10 mg/kg compound of Ex.4 administration group, a 2 ml/kg physiological saline administration group and a 5 mg/kg morphine hydrochloride administration group were made, respectively. In the case of subcutaneous administration, a 10 mg/kg, 30 mg/kg or 100 mg/kg compound of Ex.1 administration group, a 10 mg/kg, 30 mg/kg or 100 mg/kg compound of Ex.4 administration group, a 2 ml/kg physiological saline administration group and a 5 mg/kg morphine hydrochloride administration group were made, respectively. Observation of the analgesic action was performed 15 minutes, 30 minutes, 1 hour and 2 hours after administration in the case of intravenous administration, 30 minutes, 1 hour, 2 hours and 3 hours after administration in the case of subcutaneous administration, respectively.
as §4

[6] = system: SD Male rats; test: Analgesic effect, Randoll-Seritto hind limb pressure method, subcutaneous administration; format: in vivo; details: rat, s.c., 5 mg/kg
Protocol: as §3, §5, §4

Row | SMILES | Ki [1] [nM] | Ki [2] [nM] | Selectivity δ/μ [2] | IC50 [3] [µM] | other results
1 | Cc1cc(O)cc(C)c1C[C@H](N)C(=O)NCCCCCCCCNC(=O)[C@@H](N)Cc1c(C)cc(O)cc1C [Ex.6, 1,8-Bis(Dmt-amino)octane.2TFA] | 14.8 ± 3 | 0.19 ± 0.024 | 78 | > 10 | 
2 | N[C@@H](Cc1ccc(O)cc1)C(=O)NCCCCCCNC(=O)[C@@H](N)Cc1ccc(O)cc1.O=C(O)C(F)(F)F.O=C(O)C(F)(F)F [Ref.ex.3, 1,6-Bis(Tyr-amino)hexane.2TFA, reference compound] | 21900 | 410 ± 85 | 53 |  | 
3 | Cc1cc(O)cc(C)c1C[C@H](N)C(=O)NCCNC(=O)[C@@H](N)Cc1c(C)cc(O)cc1C [Ex.5, 1,2-Bis(Dmt-amino)ethane.2TFA] | 116 ± 10.6 | 1.43 ± 0.01 | 81 | > 10 | 
4 | N[C@@H](Cc1ccc(O)cc1)C(=O)NCCNC(=O)[C@@H](N)Cc1ccc(O)cc1 [Ref.ex.4, 1,2-Bis(Tyr-amino)ethane.2TFA, reference compound] | 8290 | 648 ± 95 | 13 |  | 
5 | N[C@@H](Cc1ccc(O)cc1)C(=O)NCCCCNC(=O)[C@@H](N)Cc1ccc(O)cc1 [Ref.ex.2, 1,4-Bis(Tyr-amino)butane.2HCl, reference compound] | 6500 | 309 ± 104 | 21 |  | 
6 | Cc1cc(O)cc(C)c1C[C@H](N)C(=O)NCCCCNC(=O)[C@@H](N)Cc1ccccc1 [Ex.2, 1-Dmt-amino-4-Phe-aminobutane.2HCl] | 61 ± 5.7 | 0.52 ± 0.089 | 117 | > 10 | 
7 | CN1CC[C@]23c4c5ccc(O)c4O[C@H]2[C@@H](O)C=C[C@H]3[C@H]1C5.Cl [Morphine, morphine hydrochloride, reference compound] |  |  |  |  | Change in escape reaction threshold / analgesic effect, in words [4]: significant increase in the threshold was recognized 30 minutes, 1 hour and 3 hours after administration; Threshold (mmHg) ([4]; 0.5 hr): 59 ± 4 mmHg; Threshold (mmHg) ([4]; 1 hr): 59 ± 3 mmHg; Threshold (mmHg) ([4]; 2 hr): 52 ± 3 mmHg; Threshold (mmHg) ([4]; 3 hr): 52 ± 3 mmHg; Threshold (mmHg) ([4]; 4 hr): 49 ± 2 mmHg; Threshold (mmHg) ([4]; 5 hr): 51 ± 2 mmHg; Threshold (mmHg) ([4]; before administration): 46 ± 1 mmHg; Change in escape reaction threshold / analgesic effect, in words [5]: significant increase in the escape reaction threshold was recognized 15 minutes, 30 minutes and 1 hour after administration; Threshold (mmHg) ([5]; 0.25 hr): 83 ± 6^##,$$ mmHg; Threshold (mmHg) ([5]; 0.5 hr): 79 ± 7^##,$$ mmHg; Threshold (mmHg) ([5]; 1 hr): 78 ± 6^##,$$ mmHg; Threshold (mmHg) ([5]; 2 hr): 65 ± 7 mmHg; Threshold (mmHg) ([5]; before administration): 49 ± 2 mmHg; Change in escape reaction threshold / analgesic effect, in words [6]: significant increase was recognized 30 minutes, 1 hour and 2 hours after administration; Threshold (mmHg) ([6]; 0.5 hr): 87 ± 2^##,$$ mmHg; Threshold (mmHg) ([6]; 1 hr): 85 ± 6^##,$$ mmHg; Threshold (mmHg) ([6]; 2 hr): 71 ± 7^#,$ mmHg; Threshold (mmHg) ([6]; 3 hr): 61 ± 7 mmHg; Threshold (mmHg) ([6]; before administration): 48 ± 2 mmHg
8 | N[C@@H](Cc1ccccc1)C(=O)NCCCCNC(=O)[C@@H](N)Cc1ccccc1 [Ref.ex.1, 1,4-Bis(Phe-amino)butane.2HCl, reference compound] | 46200 | 1530 | 30 |  | 
9 | Cc1cc(O)cc(C)c1C[C@H](N)C(=O)NCCCCNC(=O)[C@@H](N)Cc1ccc(O)cc1 [Ex.3, 1-(Dmt-amino)-4-Tyr-aminobutane.2HCl] | 133 ± 18 | 0.38 ± 0.02 | 349 | > 10 | 
10 | N[C@@H](Cc1ccc(O)cc1)C(=O)NCCCCCCCCNC(=O)[C@@H](N)Cc1ccc(O)cc1 [Ref.ex.5, 1,8-Bis(Tyr-amino)octane.2TFA, reference compound] | 6150 | 399 ± 40.5 |  |  | 
